# Tested on: Plasmodium berghei
# Experiment: Antimalarial activity against Plasmodium berghei
# Format: functional
row,SMILES,log(1/C)
1,OC(CC1CCCCN1)c1cc(C(F)(F)F)nc2ccc(F)cc12 (centres undefined),2.33
2,CN(C)CC(O)c1cc(-c2ccc(Cl)cc2)nc(-c2ccc(Cl)cc2)c1 (centres undefined),3.18
3,OC(CC1CCCCN1)c1cc(Oc2ccc(Cl)cc2)nc2ccccc12 (centres undefined),2.68
4,OC(CC1CCCCN1)c1cc2cc(Cl)c(Cl)cc2c2cc(Cl)ccc12 (centres undefined),3.69
5,CCCCN(CCCC)CC(O)c1cc2c(Cl)cc(Cl)cc2c2ncccc12 (centres undefined),2.94
6,OC(CC1CCCCN1)c1cc(Nc2ccc(Cl)cc2)nc2ccc(Cl)cc12 (centres undefined),2.72
7,CCCCN(CCCC)CC(O)c1cc(-c2c(Cl)cccc2Cl)nc2c(Cl)cc(Cl)cc12 (centres undefined),2.41
8,CCCCN(CCCC)CC(O)c1cc(C(C)(C)C)nc2c1cc(Cl)c1ccccc12 (centres undefined),2.98
9,CCCCNc1cc(C(O)CC2CCCCN2)c2ccccc2n1 (centres undefined),2.41
10,CCCCN(CCCC)CC(O)c1cc2ccc(Cl)cc2c2cc(OC)ccc12 (centres undefined),2.49
11,CCCCN(CCCC)CC(O)c1cc2ccc(Cl)c(Cl)c2c2cc(C(F)(F)F)ccc12 (centres undefined),3.98
12,CCCCN(CCCC)CC(O)c1cc(-c2ccc(Cl)cc2)nc2ccc(Cl)cc12 (centres undefined),3.8
13,CC(C)(C)NCC(O)c1cc2ccccc2c2ccccc12 (centres undefined),2.09
14,OC(CC1CCCCN1)c1cc2ccccc2c2ccccc12 (centres undefined),2.53
15,CCCCN(CCCC)CC(O)c1cc(C23CC4CC(CC(C4)C2)C3)nc2ccc(Cl)cc12 (centres undefined),3.05
16,CCCCCCCN(CCCCCCC)CC(O)c1cc2ccccc2c2cc(F)ccc12 (centres undefined),3.08
17,CCCCN(CCCC)CC(O)c1ccc(Cl)c2cc3cccc(Cl)c3cc12 (centres undefined),3.39
18,CCCCCCCN(CCCCCCC)CC(O)c1cc2cnccc2c2ccccc12 (centres undefined),2.47
19,OC(CNC1CCCC1)c1cc(-c2ccccc2)nc2c(Cl)cc(Cl)cc12 (centres undefined),2.54
20,CCCCNCC(O)c1cc(-c2cccc(C(F)(F)F)c2)nc(-c2cccc(C(F)(F)F)c2)c1 (centres undefined),3.94
21,OC(CC1CCCCN1)c1cc2cc(Cl)cc(Cl)c2c2cc(Cl)ccc12 (centres undefined),4.46
22,CCCCCN(CCCCC)CC(O)c1cc2ccc(Br)cc2c2cc(Br)ccc12 (centres undefined),3.72
23,OC(CC1CCCCN1)c1cc(-c2ccc(Cl)cc2)nc(-c2ccc(Cl)cc2)c1 (centres undefined),3.83

row,SMILES,log(1/C)
1,CCCCCCCCN(CCCCCCCC)CC(O)c1cc(-c2ccc(CC)c(CC)c2)cc2ccc(C)cc12 (centres undefined),3.15
2,CCCCN(CCCC)CC(O)c1c(C)c(-c2ccc(C)cc2C)nc2c1cc(Cl)c1ccccc12 (centres undefined),3.05
3,CCCCCCCN(CCCCCCC)CC(O)c1cccc2c1ccc1ccc(C(F)(F)F)cc12 (centres undefined),2.34
4,OC(CNC1CCCCC1)c1cc2ccccc2c2cc(OC(F)(F)F)ccc12 (centres undefined),3.34
5,OC(CC1CCCCN1)c1cc(C(F)(F)F)nc2ccc(Cl)cc12 (centres undefined),2.53
6,CCCCN(CCCC)CC(O)c1cc(C(C)(C)C)nc2c1ccc1ccccc12 (centres undefined),2.65
7,OC(CN1CCCCC1)c1cc(-c2ccc(Cl)cc2)nc2c(Cl)cc(Cl)cc12 (centres undefined),3.49
8,OC(CC1CCCCN1)c1ccnc2cc(Cl)ccc12 (centres undefined),2.14
9,CCCCN(CCC)CC(O)c1ccc2cc3ccccc3cc2c1 (centres undefined),2.49
10,CCCCN(CCCC)CC(O)c1cc(-c2ccc(Cl)c(Cl)c2)nc2c(Cl)cc(Cl)cc12 (centres undefined),4.21
11,CCCCCCN(CCCCCC)CC(O)c1cc2ccc(C(F)(F)F)cc2c2ccsc12 (centres undefined),2.49
12,CCCC(CCC)NCC(O)c1cc(-c2ccc(C(F)(F)F)cc2)nc(C(F)(F)F)c1 (centres undefined),4.47
13,CCCCN(CCCC)CC(O)c1cc2ccsc2c2cc(Br)ccc12 (centres undefined),3.37
14,CCCCN(CCCC)CC(O)c1cc2ccccc2c2c(Cl)cccc12 (centres undefined),2.77
15,CCCCN(CCCC)CC(O)c1cc(-c2ccc(Cl)c(Cl)c2)nc(-c2ccc(Cl)c(Cl)c2)c1 (centres undefined),2.63
16,CN1CCN(CC(O)c2cc(-c3ccc(Cl)cc3)nc3cc(Cl)ccc23)CC1 (centres undefined),2.66
17,CCCCN(CCCC)CC(O)c1cc(-c2ccc(C(F)(F)F)cc2)nc2c(Cl)cc(Cl)cc12 (centres undefined),4.04
18,CCCCN(CCCC)CC(O)c1cc2cccc(Br)c2c2cc(C(F)(F)F)ccc12 (centres undefined),3.52
19,CCCCN(CCCC)CC(O)c1c(OC)c2cc(Cl)ccc2c2ccc(Cl)cc12 (centres undefined),3.71
20,OC(CC1CCCCN1)c1cc2cc(Cl)ccc2c2ccc(C(F)(F)F)cc12 (centres undefined),3.25
21,CCCCN(CCCC)CC(O)c1cc(-c2ccc(OC)cc2)nc2cc(OC)c(Cl)cc12 (centres undefined),2.71
22,CCCCN(CCCC)CC(O)c1cc(Oc2cccc(C(F)(F)F)c2)cc2c(Cl)cc(Cl)cc12 (centres undefined),2.52
23,CCCCN(CCCC)CC(O)c1cc2cc(Cl)cc(Cl)c2nc1-c1ccc(Cl)cc1 (centres undefined),2.32

row,SMILES,log(1/C)
1,CCCCN(CCCC)CC(O)c1cc(C(=O)c2ccc(Cl)cc2)cc2c(Cl)cc(Cl)cc12 (centres undefined),2.66
2,CCCCN(CCCC)CC(O)c1cc(C(=O)c2cccc(Cl)c2)nc2c(Cl)cc(Cl)cc12 (centres undefined),4.48
3,CCCCN(CCCC)CC(O)c1c(Br)c2ccccc2c2ccccc12 (centres undefined),2.51
4,CCCCCCCN(CCCCCCC)CC(O)c1cc2ccc(Cl)cc2c2ccncc12 (centres undefined),2.31
5,CCCCN(CCCC)CC(O)c1cc(-c2ccc(Cl)cc2Cl)nc2c(Cl)cc(Cl)cc12 (centres undefined),3.66
6,CCCCNCC(O)c1cc2c(Cl)cc(Cl)cc2c2cc(C(F)(F)F)ccc12 (centres undefined),4.48
7,CCCCN(CCCC)CC(O)c1cc2c(Br)cccc2c2cc(Br)ccc12 (centres undefined),2.9
8,CCCCN(CCCC)CC(O)c1cccc2c1ccc1ccccc12 (centres undefined),2.06
9,CCCCN(CCCC)CC(O)c1cc2ccc(Cl)cc2nc1-c1ccc(Cl)cc1 (centres undefined),2.2
10,CCCCN(CCCC)CC(O)c1c(F)c(-c2ccc(Cl)cc2)nc2c(Cl)cc(Cl)cc12 (centres undefined),4.22
11,CCCCCCCN(CCCCCCC)CC(O)c1cc2ccccc2c2ccccc12 (centres undefined),2.87
12,CCCCN(CCCC)CC(O)c1cc2ccc(Br)cc2c2cc(Cl)sc12 (centres undefined),3.43
13,CCCCN(CCCC)CC(O)c1cc2cc(Cl)cc(Cl)c2c2ccc(Cl)cc12 (centres undefined),4.12
14,CCCCCCCN(CCCCCCC)CC(O)c1cc2c(Br)cccc2c2cc(C(F)(F)F)ccc12 (centres undefined),3.43
15,CCN(Cc1cc(N)ccc1OC)CC(O)c1cc2ccccc2c2cc(Br)ccc12 (centres undefined),2.97
16,CCCCCCCN(CCCCCCC)CC(O)c1cc2c(Cl)cc(Cl)cc2c2cc(C)sc12 (centres undefined),3.48
17,CCCCCCC[N+]([O-])(CCCCCCC)CC(O)c1cc2ccccc2c2cc(Br)ccc12 (centres undefined),3.43
18,FC(F)(F)c1cc(C2CCCCN2)c2ccc3ccccc3c2n1.OC(CC1CCCCN1)c1cc(C(F)(F)F)nc2c1ccc1ccccc12 (centres undefined),3.44
19,CCCCCNCC(O)c1cc(-c2ccc(C(F)(F)F)cc2)nc(-c2ccc(C(F)(F)F)cc2)c1 (centres undefined),4.17
20,Cc1ccc2c(C(O)CC3CCCCN3)cc3ccc(C(F)(F)F)cc3c2c1 (centres undefined),3.16
21,CCCCCCCN(CCCCCCC)CC(O)c1cccc2c3ccccc3c3ccccc3c12 (centres undefined),2.28
22,CCCCCN(CCCCC)CC(O)c1cc2ccc(C(F)(F)F)cc2c2ccsc12 (centres undefined),2.69
23,CCCCN(CCCC)CC(O)c1cc2ccc(I)cc2c2cc(C(F)(F)F)ccc12 (centres undefined),3.72

row,SMILES,log(1/C)
1,CCCCN(CCCC)CC(O)c1cc2ccc(C(F)(F)F)cc2c2cc(Cl)ccc12 (centres undefined),3.88
2,CCCCN(CCCC)CC(O)c1ccc(-c2ccc(Cl)cc2)c2c(Cl)cc(Cl)cc12 (centres undefined),3.33
3,CCCCCCCN(CCCCCCC)CC(O)c1cc(-c2ccc(Cl)cc2)cc2ccc(OC)cc12 (centres undefined),4.18
4,CCCCN(CCCC)CC(O)c1cc(-c2ccc(Cl)cc2)nc2ccccc12 (centres undefined),2.73
5,OC(CC1CCCCN1)c1cc2ccc(C(F)(F)F)cc2c2ccc(Cl)cc12 (centres undefined),4.12
6,OC(CC1CCCCN1)c1cc(C(F)(F)F)nc2c1cc(Cl)c1ccccc12 (centres undefined),3.43
7,CCCCN(CCCC)CC(O)c1cc2cc(Cl)ccc2c2ccccc12 (centres undefined),3.01
8,Cc1ccc(-c2cc(C(O)CC3CCCCN3)c3cc(C)cc(C)c3n2)cc1 (centres undefined),3.11
9,CCCCCCCN(CCCCCCC)CC(O)c1cccc2c1cc(Cl)c1ccc(Cl)cc12 (centres undefined),2.96
10,CCCCN(CCCC)CC(O)c1cc(-c2ccc(Cl)c(Cl)c2)nc2cc(OC)ccc12 (centres undefined),3.21
11,CCCC[N+]([O-])(CCCC)CC(O)c1cc(-c2ccc(Cl)c(Cl)c2)nc(-c2ccc(Cl)c(Cl)c2)c1 (centres undefined),2.72
12,OC(CC1CCCCN1)c1cc2cc(C(F)(F)F)ccc2c2cc(C(F)(F)F)ccc12 (centres undefined),3.85
13,CCCCCCCN(CCCCCCC)CC(O)c1cc(Cl)cc2cc3ccccc3cc12 (centres undefined),3.1
14,Cc1cccc2c(C(O)CC3CCCCN3)cc(-c3ccc(Cl)cc3)nc12 (centres undefined),3.67
15,CCCCNCC(O)c1cc2ccc(C(F)(F)F)cc2c2cc(C(F)(F)F)ccc12 (centres undefined),4.11
16,CCCCN(CCCC)CC(O)c1cc(C23CC4CC(CC(C4)C2)C3)nc2c(Cl)cc(Cl)cc12 (centres undefined),3.29
17,CCCCN(CCCC)CC(O)c1cc(-c2ccc(Cl)cc2)cc2cc(Cl)c(OC)cc12 (centres undefined),2.96
18,CCCCN(CCCC)CC(O)c1cc(-c2ccc(Cl)cc2)cc2ccccc12 (centres undefined),3.87
19,OC(CC1CCCCN1)c1cc2cc(Br)ccc2c2ccccc12 (centres undefined),3.25
20,CCCCN(CCCC)CC(O)c1cc2ccc(Br)cc2c2cc(C)sc12 (centres undefined),2.44
